Among the data in article PMC12040169 (PLOS Biology, 2025) are viability values, retold here.

The nature of the data set: in vitro. The conditions noted are these: human, hela cells, % viability.

Usually viability stands for a read-out of living cells in per cent, often relative to untreated cells. For the compound `c1ccc(CCCNc2ncc(-c3ccc(N4CCOCC4)cc3)n3ccnc23)cc1` [CBK091223], the viability at 28.5 h, 10 µM amounted to 112%. The same measure, in the same setting: under `CN1CCN(c2ncc(-c3ccc(N4CCOCC4)cc3)n3ccnc23)CC1` [CBK091226] stands 103%.

Take `COc1ccccc1-c1cnc(Nc2ccc(N3CCOCC3)cc2)c2nccn12` [CBK091230]: the viability at 28.5 h, 10 µM was found to be 99.9%. As to `CC(=O)Nc1cccc(-c2cnc(Nc3ccc(N4CCOCC4)cc3)c3nccn23)c1` [CBK091235], the viability at 28.5 h, 10 µM was found to be 99.9%. The same measure, in the same setting: under `CN(C)C(=O)c1cccc(-c2cnc(N3CCOCC3)c3nccn23)c1` [CBK091261] stands 101%. Consider `CC(C)CNc1ncc(-c2ccc(N3CCOCC3)cc2)n2ccnc12` [CBK091273], for which the viability at 28.5 h, 10 µM was found to be 101%. Still for that read-out and setting: under `CN(Cc1ccccc1)c1ncc(-c2ccc(N3CCOCC3)cc2)n2ccnc12` [CBK091275] stands 99.7%; under `CN(C)c1ccccc1-c1cnc(N2CCOCC2)c2nccn12` [CBK091280], 90.7%; under `Cc1csc(-c2cnc(N3CCOCC3)c3nccn23)c1` [CBK091287], 87.5%. The same measure, in the same setting: under `c1ccc(Cn2cc(-c3cnc(N4CCOCC4)c4nccn34)cn2)cc1` [CBK091289] stands 79.7%; under `c1ccc2cc(-c3cnc(N4CCOCC4)c4nccn34)ccc2c1` [CBK091307], 94.1%; under `CC(=O)N[C@H](Cc1c[nH]c2ccccc12)C(=O)N1CCN(c2ccc(C(F)(F)F)cc2)CC1` [CBK091314], 94.5%. Regarding `CC(=O)[C@H]1C[C@@H](CC(=O)N2CCC(C(C)=O)(c3ccccc3)CC2)C1(C)C` [CBK091323], the viability at 28.5 h, 10 µM (bulk resorufin, single well) is 109%. For `CCOC(=O)CCCCCCC(=O)N1CCN(c2ccc(C(F)(F)F)cc2)CC1` [CBK091327], the viability at 28.5 h, 10 µM was found to be 107%. Take `CC(=O)[C@H]1C[C@@H](CC(=O)N2CCN(c3ccc(C(F)(F)F)cc3)CC2)C1(C)C` [CBK091330]: the viability at 28.5 h, 10 µM worked out at 93.6%. For the compound `Cc1ccccc1C(=O)NCC(=O)Nc1ccc(Cl)nc1` [CBK091335], the viability at 28.5 h, 10 µM stood at 103%. On to `CC(=O)[C@H]1C[C@@H](CC(=O)Nc2ccc(Cl)nc2)C1(C)C` [CBK091338], for which the viability at 28.5 h, 10 µM is 97.7%.

As for `CC(=O)NCCCCCC(=O)Nc1ccc(Cl)cn1` [CBK091341], the viability at 28.5 h, 10 µM amounted to 92.3%. The same measure, in the same setting: under `CCC(C)(C)C(=O)Nc1ccc(Br)c2ccccc12` [CBK091342] stands 79.7%; under `O=C(Nc1cc2cccnc2nc1Cl)c1ccc(C(F)(F)F)cc1[N+](=O)[O-]` [CBK091348], 89.9%.

Regarding `CC(=O)[C@H]1C[C@@H](CC(=O)Nc2cc3cccnc3nc2Cl)C1(C)C` [CBK091351], the viability at 28.5 h, 10 µM worked out at 95.7%. For `Cc1ccc(S(=O)(=O)NCC(=O)Nc2ccc(Cl)cn2)cc1` [CBK091357], the viability at 28.5 h, 10 µM was found to be 105%. For `N#CC1(c2ccccc2)CCN(C(=O)COc2ccc(F)cc2)CC1` [CBK091387], for the setting “bulk resorufin, single well”, the viability at 28.5 h, 10 µM stood at 92.6%. Still for that read-out and setting: under `COc1ccc(CC(=O)N2CCC(C#N)(c3ccccc3)CC2)c(OC)c1` [CBK091388] stands 91.4%. On the same count and under the same terms, under `N#CC1(c2ccccc2)CCN(C(=O)c2ccccc2C(=O)c2ccccc2)CC1` [CBK091396] stands 107%. On to `N#CC1(c2ccccc2)CCN(C(=O)c2ccc(S(N)(=O)=O)cc2)CC1` [CBK091397], for which the viability at 28.5 h, 10 µM (bulk resorufin, single well) was 96.5%. Same read-out and setting: under `CCC(=O)N1CCC(C#N)(c2ccccc2)CC1` [CBK091400] stands 87%. For the compound `CC(=O)c1c(C)[nH]c(C(=O)N2CCC(C#N)(c3ccccc3)CC2)c1C` [CBK091404], the viability at 28.5 h, 10 µM (bulk resorufin, single well) stood at 93.3%.

Take `N#CC1(c2ccccc2)CCN(C(=O)c2ccc3c(c2)no[n+]3[O-])CC1` [CBK091405]: the viability at 28.5 h, 10 µM (bulk resorufin, single well) amounted to 92.2%. Regarding `FC(F)(F)c1cccc(Sc2cccc3ccccc23)n1` [CBK091449], the viability at 28.5 h, 10 µM was 94.8%. Still for that read-out and setting: under `CC(C)(C)OCc1[nH]n(CCc2ccccc2)c(=O)c1Cc1c(Cl)cccc1Cl` [CBK091452] stands 89.3%.

On to `COc1cc(-c2ccc3c(c2)OC2(CCNCC2)O3)ccn1` [CBK091454], for which the viability at 28.5 h, 10 µM (bulk resorufin, single well) worked out at 106%. On to `Cc1ccc(C(=O)N2CN(C(=O)CN(C)CCN(C)C)CC2(C)C)cc1` [CBK091460C], for which the viability at 28.5 h, 10 µM worked out at 115%.

For the compound `CCOC(=O)N1CCC2(CC1)Oc1ccc(-c3ccc(OC)cc3OC)cc1O2` [CBK091467], the viability at 28.5 h, 10 µM (bulk resorufin, single well) was determined as 99.7%. Take `Brc1cn2c(-c3ccccc3)cnc2c(N2CCCC2)n1` [CBK091488]: the viability at 28.5 h, 10 µM is 106%. Still for that read-out and setting: under `COc1ccc(CCCC(=O)N2CCN(c3ccccc3OC)CC2)cc1OC` [CBK091495] stands 87.1%. The same measure, in the same setting: under `COc1ccccc1N1CCN(C(=O)C2CC2C)CC1` (stereo not shown) [CBK091496] stands 108%; under `COc1ccccc1N1CCN(C(=O)CN2C(=O)c3ccccc3C2=O)CC1` [CBK091501], 95.5%. Same read-out and setting: under `COc1ccccc1N1CCN(C(=O)c2ccccc2C(=O)c2ccccc2)CC1` [CBK091506] stands 92.9%; under `COc1ccccc1N1CCN(C(=O)c2ccc3c(c2)no[n+]3[O-])CC1` [CBK091510], 85%.

As for `COc1cc(C(=O)Nc2ccc3c(c2)COC2(CCN(C(=O)OC(C)(C)C)CC2)O3)cc(OC)c1OC` [CBK091527], the viability at 28.5 h, 10 µM (bulk resorufin, single well) was determined as 85.9%. Still for that read-out and setting: under `COc1ccc(C(=O)Nc2ccc3c(c2)COC2(CCNCC2)O3)c(OC)n1` [CBK091528T] stands 87.5%. With `O=C(Nc1ccc2c(c1)COC1(CCNCC1)O2)c1cc2cc(Cl)ccc2[nH]1` [CBK091529T], for the setting “bulk resorufin, single well”, the viability at 28.5 h, 10 µM was 71.3%. On the same count and under the same terms, under `COc1cc(NC(=O)Nc2ccc3c(c2)COC2(CCNCC2)O3)cc(OC)c1OC` [CBK091530T] stands 94.9%. For the compound `c1ccc(CNC2CCc3[nH]c4ccccc4c3C2)cc1` (stereo not shown) [CBK091587T], the viability at 28.5 h, 10 µM came to 106%. Still for that read-out and setting: under `CC(C)CC(C(=O)Nc1nnc(C(C)C)s1)N1C(=O)c2ccccc2C1=O` (stereo not shown) [CBK091610] stands 77.3%; under `CN(C)S(=O)(=O)c1c(Cl)cccc1Cl` [CBK091643], 84%. As to `CC(=O)N[C@H]1[C@H](Oc2ccc3ccccc3c2)O[C@@H]2COC(C)(C)O[C@H]2[C@@H]1O` [CBK091644], the viability at 28.5 h, 10 µM was determined as 87%.

Turning to `O=C(Nn1cnnc1)c1cccc(C(=O)Nn2cnnc2)c1` [CBK091759], the viability at 28.5 h, 10 µM came out at 99.4%. On the same count and under the same terms, under `COc1ccc(-n2c(SCC(=O)Nc3cccc(C(C)=O)c3)nc3sc(C)c(C)c3c2=O)cc1` [CBK091806] stands 97.6%; under `CN(CC(=O)N1CCCCC1)S(=O)(=O)c1cc(Cl)ccc1Cl` [CBK091826], 78.9%; under `CN(CC(=O)NC1CCCCC1)S(=O)(=O)c1ccc(F)cc1` [CBK091832], 98.6%.

As for `CCNC(=O)CN(C)S(=O)(=O)c1cc(Cl)ccc1Cl` [CBK091853], the viability at 28.5 h, 10 µM is 94.1%. On the same count and under the same terms, under `Cc1ccccc1-n1c(SC(C)C)nc2sc3c(c2c1=O)CC(C)(C)OC3` [CBK091874] stands 91.2%; under `O=C(O)c1ccc(NS(=O)(=O)c2cccs2)cc1O` [CBK092145], 101%; under `CS(=O)(=O)Nc1nc2ccc(S(C)(=O)=O)cc2s1` [CBK092166], 100%. On the same count and under the same terms, under `COc1ccc(S(=O)(=O)N2CCC(C(=O)O)CC2)cc1C(=O)O` [CBK092181] stands 91.4%.

On to `COC(=O)c1ccccc1Oc1nc(OC)cc(OC)n1` [CBK092217], for which the viability at 28.5 h, 10 µM turned out to be 110%. On the same count and under the same terms, under `COc1cc(OC)nc(Oc2ccc(C(=O)O)cc2)n1` [CBK092222] stands 106%; under `c1ccc(-c2cnc3c(N4CCCC4)nc(-c4cccnc4)cn23)cc1` [CBK092245], 86.7%; under `Cc1cnc2c(N3CCCC3)nc(Cl)cn12` [CBK092250], 104%.

On to `CC(C)(C)OC(=O)N1CCC2(CC1)OCc1cc(Br)ccc1O2` [CBK092251], for which, where the note is “bulk resorufin, single well”, the viability at 28.5 h, 10 µM stood at 99.4%. For the compound `COc1ccccc1C1NC(=O)COC12CCN(Cc1ccccc1)CC2` (stereo not shown) [CBK092265], the viability at 28.5 h, 10 µM amounted to 109%.

Consider `Cn1[nH]c(CO)c(Cc2c(Cl)cccc2Cl)c1=O` [CBK092278T], for which the viability at 28.5 h, 10 µM was 95.4%. `COc1n[nH]c(CO)c1Cc1c(Cl)cccc1Cl` [CBK092283T]: the viability at 28.5 h, 10 µM worked out at 97.3%.

With `CCOC(=O)c1cnc(SC)nc1NCCc1c[nH]c2cc(OC)ccc12` [CBK092317], the viability at 28.5 h, 10 µM turned out to be 87.6%.

As for `Cc1ccccc1C(=O)NCC(=O)NCc1csc(-c2ccccc2)n1` [CBK092334], the viability at 28.5 h, 10 µM amounted to 91.8%. Take `CCC(=O)NCc1csc(-c2ccccc2)n1` [CBK092344]: the viability at 28.5 h, 10 µM worked out at 90.1%. The same measure, in the same setting: under `CSCC[C@H](NC(=O)OC(C)(C)C)C(=O)NCc1csc(-c2ccccc2)n1` [CBK092345] stands 88%. `Cc1nc(-c2ccccc2)sc1CNC(=O)/C=C\C(=O)Nc1ccc(F)cc1` [CBK092357]: the viability at 28.5 h, 10 µM stood at 96.2%.

For the compound `Cc1nc(-c2ccccc2)sc1CNC(=O)C(F)(F)F` [CBK092363], the viability at 28.5 h, 10 µM was 88.8%.

On to `Cc1nc(-c2ccccc2)sc1CNC(=O)CCC(F)(F)F` [CBK092365], for which the viability at 28.5 h, 10 µM is 102%.

`Cc1nc(-c2ccccc2)sc1CNC(=O)/C=C/c1c[nH]cn1` [CBK092368]: the viability at 28.5 h, 10 µM was 83.3%. Same read-out and setting: under `Cc1nc(-c2ccccc2)sc1CNC(=O)C1CC1C` (stereo not shown) [CBK092369] stands 97%; under `Cc1nc(-c2ccccc2)sc1CNC(=O)Cc1ccccc1F` [CBK092372], 104%; under `Cc1nc(-c2ccccc2)sc1CNC(=O)CCc1c[nH]c2ccccc12` [CBK092373], 106%. Same read-out and setting: under `CCOC(=O)CNc1nc(OC)cc(OC)n1` [CBK093392] stands 86.7%; under `Cc1ccc(NC(=O)Nc2cc(S(N)(=O)=O)ccc2C)cc1` [CBK093428], 98.5%. The same measure, in the same setting: under `O=C1CSC2(C(=O)Nc3ccc(Br)cc32)N1c1cccc([N+](=O)[O-])c1` (stereo not shown) [CBK093451] stands 94.3%.
